{"source": "patent US10233222B2", "about": "“Methods, compositions, diagnostics and assays for the treatment of Alzheimer's disease” (priority 2014, dated 2019)", "biological_target": "T1, Aβ42-SYP interaction (Homo sapiens, UniProt P08247)", "T1 construct": "His6; made in house; host or cells: insect cells (SYP)", "T1 sequence (P08247 whole entry)": "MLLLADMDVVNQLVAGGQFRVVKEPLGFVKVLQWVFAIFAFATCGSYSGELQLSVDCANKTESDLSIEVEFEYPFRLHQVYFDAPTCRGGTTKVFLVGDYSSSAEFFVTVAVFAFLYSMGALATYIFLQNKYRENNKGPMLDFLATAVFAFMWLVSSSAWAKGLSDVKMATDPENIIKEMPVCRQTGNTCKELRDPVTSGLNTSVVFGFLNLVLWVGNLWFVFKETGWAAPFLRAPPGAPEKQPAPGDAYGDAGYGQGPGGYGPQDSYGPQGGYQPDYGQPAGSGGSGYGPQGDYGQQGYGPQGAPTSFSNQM", "assay": "SPR binding of Aβ42 to SYP in the presence of cholesterol hemisuccinate", "settings": "increasing concentrations of cholesterol hemisuccinate", "method": "Surface Plasmon Resonance: Binding studies were performed on a Biacore 3000 or a BiOptix 404 pi, with similar results. For the Biacore, a CMS chip was used and for the BiOptix instrument, a CMV150 chip was employed. […] Recombinant human SYP, containing a His(6)-tag expressed in insect cells, was a gift of J. Mapes and A. DeFazio at CU Boulder. Bovine serum albumin (Sigma, St. Louis, Mo.), Interleukin 1 receptor antagonist (gift of Synergen, Inc., Boulder, Colo.), and SLC35F1 (gift of G. Chang, UCSD) were used as control proteins. Binding at a flow rate of 20 μl/min was in 0.15M sodium chloride, 0.03M sodium HEPES, pH 7.4, 0.009% Fos-choline 14 (Anatrace, Santa Clara, Calif.) for all samples.\nWe therefore asked if cholesterol inhibits the Aβ42-SYP interaction.", "data": [{"substance": "cholesterol hemisuccinate", "values": [{"measurement": "inhibition of binding of Aβ42 to SYP", "result": "robust concentration dependent inhibition of binding"}]}]}
